Among the targets are Can (Cupriavidus necator, UniProt Q0KFA0); Caa (Cupriavidus necator, UniProt Q0JYI9); Can2 (Cupriavidus necator, UniProt Q0JYX2).
Conditions in all cases: 50 mM KHCO3, 50 mM HEPES, 50 mM Na2SO4, 50 mM MgSO4, pH 6, 1°C
A further experiment concerns the target T1, Cag (Cupriavidus necator, UniProt Q0KCD8).
T1 construct: gene H16_A1192

Another experiment deals with T2, CaaB (Cupriavidus necator, UniProt Q0JYI9).
T2 construct: gene caa

The values below come from PMC3904209 (AMB Express, 2014).

Chain of Can2 (Q0JYX2 1-235): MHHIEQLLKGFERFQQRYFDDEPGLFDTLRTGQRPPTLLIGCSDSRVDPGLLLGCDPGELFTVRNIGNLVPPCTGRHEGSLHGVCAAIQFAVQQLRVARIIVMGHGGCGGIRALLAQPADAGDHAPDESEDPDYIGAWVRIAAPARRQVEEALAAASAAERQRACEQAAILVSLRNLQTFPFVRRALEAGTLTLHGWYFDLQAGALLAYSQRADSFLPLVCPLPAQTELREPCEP
Chain of Caa (Q0JYI9 1-249): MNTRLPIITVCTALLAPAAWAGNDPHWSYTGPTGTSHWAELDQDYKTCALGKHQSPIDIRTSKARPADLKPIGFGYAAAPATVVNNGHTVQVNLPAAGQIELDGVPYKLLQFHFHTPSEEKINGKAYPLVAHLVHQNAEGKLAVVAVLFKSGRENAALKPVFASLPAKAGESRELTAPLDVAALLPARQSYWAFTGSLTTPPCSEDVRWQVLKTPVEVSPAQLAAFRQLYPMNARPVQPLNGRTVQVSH
Chain of Can (Q0KFA0 1-223): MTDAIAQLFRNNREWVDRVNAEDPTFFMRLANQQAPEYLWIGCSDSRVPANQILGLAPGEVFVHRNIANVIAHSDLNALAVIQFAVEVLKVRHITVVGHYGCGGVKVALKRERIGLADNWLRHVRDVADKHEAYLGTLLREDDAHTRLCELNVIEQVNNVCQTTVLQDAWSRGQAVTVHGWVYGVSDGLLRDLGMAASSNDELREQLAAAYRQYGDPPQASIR
T1 sequence (Q0KCD8 1-174): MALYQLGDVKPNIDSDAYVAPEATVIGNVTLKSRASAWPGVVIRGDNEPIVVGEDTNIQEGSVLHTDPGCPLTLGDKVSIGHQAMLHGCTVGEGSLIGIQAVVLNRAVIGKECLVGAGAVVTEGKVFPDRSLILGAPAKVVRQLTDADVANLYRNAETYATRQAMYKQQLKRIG
T2 sequence (Q0JYI9 24-249): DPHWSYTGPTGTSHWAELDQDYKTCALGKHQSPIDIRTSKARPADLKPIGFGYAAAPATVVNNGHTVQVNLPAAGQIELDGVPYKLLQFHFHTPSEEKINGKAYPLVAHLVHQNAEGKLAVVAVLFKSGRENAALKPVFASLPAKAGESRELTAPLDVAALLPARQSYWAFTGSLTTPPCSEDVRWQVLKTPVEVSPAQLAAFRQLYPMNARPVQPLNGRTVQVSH

`O=C(O)O` [bicarbonate]: the “stopped-flow pH-indicator (phenol red, A557nm) assay” value is “Cag presented the highest activity using bicarbonate as a carbon source” on Cag; “the specific activities of both Can and Can2 were similar with bicarbonate as a substrate” at Can; “All CAs were active towards CO2 and bicarbonate” at Caa; “(CaaB) exhibited similar activity values when compared to the purified, Strep-tagged Caa enzyme” at CaaB; “the specific activities of both Can and Can2 were similar with bicarbonate as a substrate” at Can2.
